We go through one compound from ChEMBL document CHEMBL5223150, “Targeting the PI3K/AKT/mTOR Signaling Pathway in the Treatment of Human Diseases: Current Status, Trends, and Solutions” (J Med Chem, 2022).

This data set can be described thus: Metabolic stability in human liver microsomes assessed as compound remaining after 1 hr. The settings on record: read-out: Stability. Format: ADME, Microsome. (Microsomes from liver hold many membrane-bound enzymes, among them those of drug oxidation.)

For the compound `O=C(N1CCN(c2ncnc3[nH]nc(Cl)c23)CC1)C1(c2ccc(Cl)c(Cl)c2)CCNCC1`, the remaining at 1 h is 80%.
